In ChEMBL document CHEMBL1159178, “The use of a proline ring as a conformational restraint in CCK-B receptor dipeptoids” (Bioorg Med Chem Lett, 1992):
pIC50: −log10 of the molar value. Blank lines part the entries; values can stand above or below the compound they belong to.

Assays:
[1] = molecular target: T1, Cholecystokinin receptor type A (Rattus norvegicus, UniProt P30551); assay: Evaluated for in vitro binding affinity to cholecystokinin-A (CCK-A) receptor in homogenized rat pancreas using [125I]bolton hunter CCK-26-33 as radioligand; 690-850
T1 sequence (P30551 whole entry): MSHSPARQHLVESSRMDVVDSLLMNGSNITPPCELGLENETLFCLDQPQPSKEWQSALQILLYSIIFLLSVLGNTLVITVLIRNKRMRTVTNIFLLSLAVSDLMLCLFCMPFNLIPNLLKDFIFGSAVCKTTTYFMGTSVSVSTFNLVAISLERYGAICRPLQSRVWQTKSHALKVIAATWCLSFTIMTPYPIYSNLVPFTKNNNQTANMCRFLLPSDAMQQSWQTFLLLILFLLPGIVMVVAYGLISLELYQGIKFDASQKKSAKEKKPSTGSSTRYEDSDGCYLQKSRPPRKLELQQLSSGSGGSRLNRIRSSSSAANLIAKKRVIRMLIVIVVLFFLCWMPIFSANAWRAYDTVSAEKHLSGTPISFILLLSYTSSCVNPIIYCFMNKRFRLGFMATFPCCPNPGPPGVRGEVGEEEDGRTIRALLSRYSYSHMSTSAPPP

[2] = molecular target: T2, Gastrin/cholecystokinin type B receptor (Mus musculus, UniProt P56481); assay: Evaluated for in vitro binding affinity towards cholecystokinin-B (CCK-B) receptor in mouse cerebral cortex using [125I]bolton hunter CCK-26-33 as radioligand; 4.2-8.9; type: tissue-based
T2 sequence (P56481 whole entry): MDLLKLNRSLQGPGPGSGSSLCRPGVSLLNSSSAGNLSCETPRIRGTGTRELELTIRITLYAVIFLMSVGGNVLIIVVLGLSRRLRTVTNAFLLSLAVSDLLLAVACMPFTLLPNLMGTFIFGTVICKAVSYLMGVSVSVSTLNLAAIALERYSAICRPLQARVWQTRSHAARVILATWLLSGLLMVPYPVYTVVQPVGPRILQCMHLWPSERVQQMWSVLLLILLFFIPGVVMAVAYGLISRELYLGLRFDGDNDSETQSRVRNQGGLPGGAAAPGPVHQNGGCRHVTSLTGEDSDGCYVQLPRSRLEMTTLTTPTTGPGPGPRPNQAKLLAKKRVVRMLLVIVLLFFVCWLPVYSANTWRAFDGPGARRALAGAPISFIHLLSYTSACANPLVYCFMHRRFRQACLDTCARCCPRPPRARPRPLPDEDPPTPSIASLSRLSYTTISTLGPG

[3] = molecular target: T1, Cholecystokinin receptor type A; assay: Evaluated for in vitro binding affinity to cholecystokinin-A (CCK-A) receptor in homogenized rat pancreas using [125I]bolton hunter CCK-26-33 as radioligand; 743-1710
[4] = molecular target: T2, Gastrin/cholecystokinin type B receptor; assay: Evaluated for in vitro binding affinity towards cholecystokinin-B (CCK-B) receptor in mouse cerebral cortex using [125I]bolton hunter CCK-26-33 as radioligand; 1790-2700; type: tissue-based
[5] = molecular target: T1, Cholecystokinin receptor type A; assay: Evaluated for in vitro binding affinity to cholecystokinin-A (CCK-A) receptor in homogenized rat pancreas using [125I]bolton hunter CCK-26-33 as radioligand; 770-2020
[6] = molecular target: T2, Gastrin/cholecystokinin type B receptor; assay: Evaluated for in vitro binding affinity towards cholecystokinin-B (CCK-B) receptor in mouse cerebral cortex using [125I]bolton hunter CCK-26-33 as radioligand; 365-1590; type: tissue-based

- pIC50 [1]: 6.11
- pIC50 [2]: 8.20
SMILES: O=C(NC(Cc1c[nH]c2ccccc12)C(=O)NC(CO)Cc1ccccc1)OC1C2CC3CC(C2)CC1C3 (stereo unspecified)

- pIC50 [3]: 5.98
- pIC50 [4]: 5.68
SMILES: O=C(OC1C2CC3CC(C2)CC1C3)N1CCCC1(Cc1c[nH]c2ccccc12)C(=O)NC(CO)Cc1ccccc1 (stereo unspecified)

- pIC50 [5]: 5.97
- pIC50 [6]: 6.07
SMILES: CC(Cc1c[nH]c2ccccc12)(NC(=O)OC1C2CC3CC(C2)CC1C3)C(=O)NC(CO)Cc1ccccc1 (stereo unspecified)
